# Measured values: US11684614B2, “Formulations of hydroxypyridonate actinide/lanthanide decorporation agents” (priority 2017, dated 2023)
# Values joined by “and” are separate entries in the source; they are usually repeats but may differ in a detail not shown here. Equal values may be shown once.
# Experiment: Repeated-treatment efficacy for removing an intravenous dose of 238Pu (excretion, tissue retention, clinical observations), female and male arms
# Assay type: in vivo, Swiss-Webster mice
# Conditions: for tissue content of 238Pu compared to saline control group: all analyzed tissues, all dosing regimens; for % Recovered Dose - Feces per Day: group H
# Method: The objective of this study was to characterize the efficacy of 3,4,3-L1(1,2-HOPO) at enhancing elimination from an internal plutonium burden in female and male Swiss-Webster mice administered a soluble citrate complex of ^238Pu and treated multiple times, starting at 24 hours after the exposure. Efficacy was evaluated by comparing the tissue contents, urinary and fecal excretions of ^238Pu in treated animals versus untreated animals.
# The medical countermeasure 3,4,3-L1(1,2-HOPO) was administered parenterally (ip) or orally (po) via consecutive injections or gavages (six daily or twelve twice daily) starting at 24 hours post contamination at the following four selected doses: 30 μmol/kg ip, 150 μmol/kg po, 300 μmol/kg po, and 600 μmol/kg po (equivalent to respective approximate human doses range of […], using the accepted conversion system of mouse doses into human equivalent doses—HED—based on body surface area). Oral doses also included the permeability enhancer selected during formulation development work.
# • Challenge isotope: ^238Pu • Challenge dose: 25 nCi (i.e., approximately 0.8 μCi/kg) • Route of contamination: Intravenous (iv) tail-vein • Route of treatment: Intraperitoneal Injection (ip) or Oral (po) • Frequency of treatment: Multiple (once- or twice-daily for 6 days) doses, starting 24 hr postcontamination • Treatment dose calculation: Dose calculations (mg/kg or μmol/kg) for the decorporation agent were based on the individual body weight measured after contamination. • Study Duration: 11 days, in-life
# c. […] Test article and control dose formulations were prepared within 1 day of dose administration, by weighing out the appropriate amount of test article, dispersing in vehicle. For ip solutions, the test article was used alone, while for oral suspensions, a mixture of test article and excipient (90:10, w:w) was used. The pH was adjusted to 7.0-7.4 for ip administration and 5.0-5.5 for oral administration with sterile NaOH. Dose formulations were prepared at room temperature and filter-sterilized. • Storage: 2-8° C.; refrigerated; protected from light. • Characterization: The concentration of each test article formulation was verified by high-performance liquid chromatography-mass spectrometry. • Test Article Handling: Test, reference, and control article formulations were handled with the use of eye protection, gloves, and a protective laboratory coat. • Correct Dose Assurance: The test article was weighed with calibrated balances. The administration of each dose formulation was properly documented, and the amount administered to each animal recorded.
# e. Experimental Procedures (In-Life Evaluations and Euthanasia) • Contamination: Single administration by intravenous (iv) tail-vein injection (0.2 mL injection volume) under isoflurane anesthesia. Three standard 0.2 mL injections were performed into polyethylene bottles and pre-loaded with aliquots of concentrated nitric acid on each injection day. Six female and six male mice were culled for necropsy 1 hr post-contamination and were used as standards. A11 standards were processed and counted together with the final samples to allow verification of the contamination dose. • Dose Administration: Single administration by intraperitoneal injection (ip) or oral gavage (po) under isoflurane anesthesia. • Mortality/Morbidity: Assessed at least once daily. • Clinical Observations: Recorded once daily (4 hr post-dose on day of treatment), or more often as clinical signs warranted. […]
# [1] = female mice, 30 μmol/kg, IP, 11-day necropsy
# [2] = female mice, 30 μmol/kg, IP, 11-day necropsy, over untreated control group
# [3] = female mice, 30 μmol/kg, IP, 11-day necropsy, vs untreated control group
# [4] = male animals, Day-11 necropsy, animal group H
# [5] = male arm table, Day 11 necropsy, animal group H
# [6] = male mice, 30 μmol/kg, IP, 11-day necropsy
# [7] = male mice, 30 μmol/kg, IP, 11-day necropsy, over untreated control group
# [8] = male mice, 30 μmol/kg, IP, 11-day necropsy, vs untreated control group
smiles,measurement,setting,value
"O=C(O)CN(CCN(CC(=O)O)CC(=O)O)CCN(CC(=O)O)CC(=O)O [DTPA, diethylenetriaminepentaacetic acid, reference compound]",238Pu excretion path,female and male mice,through urine
same,"^238Pu excretion, Total Excretion, Avg",[1],72.13 percent recovered dose
same,"^238Pu excretion, Total Feces, Avg",[1],30.20 percent recovered dose
same,"^238Pu excretion, Total Urine, Avg",[1],41.93 percent recovered dose
same,"^238Pu retention, GI Tract, Avg",[1],0.54 percent recovered dose
same,"^238Pu retention, Kidney, Avg",[1],0.13 percent recovered dose
same,"^238Pu retention, Liver, Avg",[1],4.14 percent recovered dose
same,"^238Pu retention, Soft Tissue, Avg",[1],1.66 percent recovered dose
same,"^238Pu retention, Total Body, Avg",[1],27.87 percent recovered dose
same,"^238Pu retention, Total Bone, Avg",[1],21.40 percent recovered dose
same,"^238Pu percent increase in excretion, Total Excretion",[2],143.34%
same,"^238Pu percent increase in excretion, Total Feces",[2],106.02%
same,"^238Pu percent increase in excretion, Total Urine",[2],192.03%
same,"^238Pu percent tissue reduction, GI Tract",[3],59.99%
same,"^238Pu percent tissue reduction, Kidney",[3],51.24%
same,"^238Pu percent tissue reduction, Liver",[3],65.62%
same,"^238Pu percent tissue reduction, Soft Tissue",[3],41.56%
same,"^238Pu percent tissue reduction, Total Body",[3],43.90%
same,"^238Pu percent tissue reduction, Total Bone",[3],35.51%
same,tissue content of 238Pu compared to saline control group,female,large reductions
same,% Recovered Dose Combined Body,[4],31.58% and 24.29% and 33.79% and 30.93% and 32.00% and 29.03% and 23.14% and 27.41%
same,% Recovered Dose Combined Excreta,[4],68.42% and 74.71% and 66.21% and 69.07% and 68.00% and 70.97% and 76.86% and 72.59%
same,% Recovered Dose GI Tract,[4],1.75% and 0.46% and 0.91% and 0.70% and 0.71% and 0.57% and 0.52% and 0.47%
same,% Recovered Dose Kidney,[4],0.14% and 0.28% and 0.20% and 0.21% and 0.11% and 0.15% and 0.17%
same,% Recovered Dose Liver,[4],5.98% and 3.55% and 5.50% and 4.81% and 4.85% and 4.26% and 4.33% and 4.96%
same,% Recovered Dose Soft Tissue,[4],2.40% and 1.47% and 2.34% and 2.95% and 2.10% and 1.91% and 1.81% and 1.44%
same,% Recovered Dose Total Bone,[4],21.31% and 18.54% and 24.85% and 22.27% and 24.22% and 22.15% and 16.34% and 20.37%
same,"% Recovered Dose Urine per Day, Day 2",[5],7.92% and 8.51% and 7.65% and 2.69% and 6.20% and 7.54% and 5.46% and 8.58%
same,"% Recovered Dose Urine per Day, Day 3",[5],3.90% and 4.79% and 4.05% and 2.57% and 3.66% and 4.86% and 4.80% and 5.85%
same,"% Recovered Dose Urine per Day, Day 4",[5],3.05% and 3.34% and 2.72% and 0.84% and 2.10% and 3.61% and 2.55% and 2.58%
same,"% Recovered Dose Urine per Day, Day 5",[5],1.94% and 1.91% and 2.47% and 1.16% and 1.62% and 3.01% and 2.10% and 2.23%
same,"% Recovered Dose Urine per Day, Day 6",[5],1.36% and 1.21% and 1.73% and 0.80% and 1.18% and 1.69% and 1.57% and 1.37%
same,"% Recovered Dose Urine per Day, Day 7",[5],1.74% and 1.68% and 1.50% and 1.67% and 1.63% and 1.84% and 1.87% and 1.77%
same,"% Recovered Dose Urine per Day, Day 8",[5],0.96% and 0.76% and 0.90% and 0.53% and 0.64% and 0.85% and 1.18% and 0.65%
same,"% Recovered Dose Urine per Day, Day 9",[5],0.92% and 0.50% and 1.01% and 0.62% and 0.49% and 0.72% and 0.87% and 0.69%
same,"% Recovered Dose Urine per Day, Day 10",[5],0.35% and 0.32% and 0.27% and 0.21% and 0.49% and 0.38%
same,"% Recovered Dose Urine per Day, Day 11",[5],0.20% and 0.84% and 0.25% and 0.28% and 0.33% and 0.44% and 0.55% and 0.31%
same,% Recovered Dose - Feces per Day,"male mice, feces day 2, Day 11 necropsy",2.78% and 4.90% and 1.40% and 7.06% and 3.40% and 6.60% and 7.14% and 5.64%
same,% Recovered Dose - Feces per Day,"male mice, feces day 3, Day 11 necropsy",3.63% and 6.69% and 4.80% and 10.31% and 4.70% and 6.91% and 8.25% and 7.45%
same,% Recovered Dose - Feces per Day,"male mice, feces day 4, Day 11 necropsy",3.78% and 4.47% and 3.18% and 7.97% and 3.38% and 4.66% and 5.75% and 4.65%
same,% Recovered Dose - Feces per Day,"male mice, feces day 5, Day 11 necropsy",1.51% and 1.78% and 1.71% and 3.62% and 1.81% and 1.45% and 2.38% and 1.92%
same,% Recovered Dose - Feces per Day,"male mice, feces day 6, Day 11 necropsy",1.64% and 2.00% and 2.45% and 2.79% and 1.57% and 1.96% and 1.83% and 1.74%
same,% Recovered Dose - Feces per Day,"male mice, feces day 7, Day 11 necropsy",1.05% and 1.04% and 1.03% and 2.05% and 1.28% and 0.78% and 1.36% and 3.81%
same,% Recovered Dose - Feces per Day,"male mice, feces day 8, Day 11 necropsy",0.81% and 0.75% and 1.29% and 1.70% and 0.85% and 0.78% and 1.19% and 1.40%
same,% Recovered Dose - Feces per Day,"male mice, feces day 9, Day 11 necropsy",0.43% and 0.51% and 0.65% and 1.29% and 0.58% and 0.39% and 0.64% and 0.87%
same,% Recovered Dose - Feces per Day,"male mice, feces day 10, Day 11 necropsy",0.38% and 0.40% and 0.33% and 0.79% and 0.42% and 0.30% and 0.52% and 0.68%
same,% Recovered Dose - Feces per Day,"male mice, feces day 11, Day 11 necropsy",0.37% and 0.35% and 0.40% and 0.78% and 0.36% and 0.30% and 0.52% and 0.77%
same,"^238Pu excretion, Total Excretion, Avg",[6],70.98 percent recovered dose
same,"^238Pu excretion, Total Feces, Avg",[6],35.89 percent recovered dose
same,"^238Pu excretion, Total Urine, Avg",[6],35.09 percent recovered dose
same,"^238Pu retention, GI Tract, Avg",[6],0.76 percent recovered dose
same,"^238Pu retention, Kidney, Avg",[6],0.17 percent recovered dose
same,"^238Pu retention, Liver, Avg",[6],4.78 percent recovered dose
same,"^238Pu retention, Soft Tissue, Avg",[6],2.05 percent recovered dose
same,"^238Pu retention, Total Body, Avg",[6],29.02 percent recovered dose
same,"^238Pu retention, Total Bone, Avg",[6],21.26 percent recovered dose
same,"238Pu percent increase in excretion, Total Excretion",[7],149.50%
same,"238Pu percent increase in excretion, Total Feces",[7],140.57%
same,"238Pu percent increase in excretion, Total Urine",[7],159.88%
same,"^238Pu percent tissue reduction, GI Trace",[8],61.32%
same,"^238Pu percent tissue reduction, Kidney",[8],47.89%
same,"^238Pu percent tissue reduction, Liver",[8],71.51%
same,"^238Pu percent tissue reduction, Soft Tissue",[8],42.09%
same,"^238Pu percent tissue reduction, Total Body",[8],44.74%
same,"^238Pu percent tissue reduction, Total Bone",[8],28.92%
same,tissue content of 238Pu compared to saline control group,male,large reductions
